Source: patent publication US10736857B2, “Treatment of pervasive developmental disorders with redox-active therapeutics” (PTC Therapeutics, Inc., priority 2008, dated 2020)

Tested on: Human Dermal Fibroblasts from Autistic Patients (ASD fibroblasts)
Test: Rescue of ASD fibroblasts stressed by addition of L-buthionine-(S,R)-sulfoximine (BSO), Calcein AM viability read-out
Format: cell-based
Details: Fibroblast, 1 mM final BSO, 48 hours, Calcein AM fluorescence, viability relative to non-BSO treated fibroblasts (100%), tested three times, read-out: EC50, protection against ASD (rescue of BSO-stressed ASD fibroblasts)
Experimental: A screen was performed to identify compounds effective for the amelioration of ASD. Test samples, and solvent controls were tested for their ability to rescue ASD fibroblasts stressed by addition of L-buthionine-(S,R)-sulfoximine (BSO).
MEM (a medium enriched in amino acids and vitamins, catalog no. Gibco 11965) and Fetal Calf Serum were obtained from Invitrogen. Basic fibroblast growth factor and epidermal growth factor were purchased from PeproTech. Penicillin-streptomycin-glutamine mix, L-buthionine (S,R)-sulfoximine, and insulin from bovine pancreas were purchased from Sigma. Calcein AM was purchased from Molecular Probes. Cell culture medium (ATP) was made by combining 75 ml Fetal Calf Serum, 100 U/ml penicillin, 100 μg/ml streptomycin, 2 mM glutamine, 10 ng/ml EGF, and 10 ng/ml bFGF; MEM EBS was added to make the volume up to 500 ml. A 10 mM BSO solution was prepared by dissolving 444 mg BSO in 200 ml of medium with subsequent filter-sterilization. […]
100 μl of PBS containing 1.2 μM Calcein AM were then added to each well. […] After that time the PBS was discarded, the plate gently tapped on a paper towel and fluorescence (excitation/emission wavelengths of 485 nm and 525 nm, respectively) was read on a Gemini fluorescence reader. […]
The viability of non-BSO treated fibroblasts was set as 100%, and the viability of the BSO- and compound-treated cells was calculated as relative to this value.

Compound | EC50 [nM]
CCCCCCCCCC1=C(C)C(=O)C(C)=C(C)C1=O [2,3,5-trimethyl-6-nonylcyclohexa-2,5-diene-1,4-dione] | < 150
CC(C)=CCC/C(C)=C/CC/C(C)=C/CCC(C)(O)CCC1=C(C)C(=O)C(C)=C(C)C1=O (centres unmarked) [2-(3-hydroxy-3,7,11,15-tetramethylhexadeca-6,10,14-trienyl)-3,5,6-trimethylcyclohexa-2,5-diene-1,4-dione] | < 150
